Source: article PMC4460250, “Systems Pharmacology Dissecting Holistic Medicine for Treatment of Complex Diseases: An Example Using Cardiocerebrovascular Diseases Treated by TCM” (Evidence-based Complementary and Alternative Medicine : eCAM, 2015)
Read-outs that look alike come from different tables or passages of the source.

Legend:
[1] = in vivo
[2] = cited from earlier work

Row | Compound | Class(High: HIA value ≥0.7; Low: HIA value < 0.7) [1] | HIA(Human Intestinal Absorption) ([2]; in vivo) | HIA(Human Intestinal Absorption) ([2]; human, PreHIA data set, value given as fraction)
1 | COC(=O)C(c1ccccc1Cl)N1CCc2sccc2C1 (stereo in doubt) [Clopidogrel(R)] | Low (key: High: HIA value ≥0.7; Low: HIA value < 0.7) | 0.5 | –
2 | CC(C)C[C@H](N(C)C)C1(c2ccc(Cl)cc2)CCC1 [Sibutramine(S)] | High (key: High: HIA value ≥0.7; Low: HIA value < 0.7) | 0.77 | –
3 | COc1cccc2c1C(=O)c1c(O)c3c(c(O)c1C2=O)C[C@@](O)(C(C)=O)C[C@@H]3O[C@H]1C[C@H](N)[C@H](O)[C@H](C)O1 [Daunorubicin] | Low (key: High: HIA value ≥0.7; Low: HIA value < 0.7) | 0.1 | –
4 | O=[N+]([O-])O[C@H]1CO[C@H]2[C@@H]1OC[C@H]2O[N+](=O)[O-] [Isosorbide_dinitrate] | High (key: High: HIA value ≥0.7; Low: HIA value < 0.7) | 1 | –
5 | C[C@@H]1COc2c(N3CCN(C)CC3)c(F)cc3c(=O)c(C(=O)O)cn1c23 [Ofloxacin(R)] | High (key: High: HIA value ≥0.7; Low: HIA value < 0.7) | 1 | –
6 | CN(C)C(=O)Oc1cccc([N+](C)(C)C)c1 [Neostigmine] | Low (key: High: HIA value ≥0.7; Low: HIA value < 0.7) | 0.02 | –
7 | COC(=O)C1=C(C)NC(C)=C(C(=O)OCC(C)C)[C@@H]1c1ccccc1[N+](=O)[O-] [Nisoldipine(R)] | High (key: High: HIA value ≥0.7; Low: HIA value < 0.7) | 0.9 | –
8 | NS(=O)(=O)c1cc([C@@]2(O)NC(=O)c3ccccc32)ccc1Cl [Chlorthalidone(S)] | Low (key: High: HIA value ≥0.7; Low: HIA value < 0.7) | 0.65 | –
9 | CC(C)[C@H]1CC[C@H](C(=O)N[C@H](Cc2ccccc2)C(=O)O)CC1 [Nateglinide(R)] | High (key: High: HIA value ≥0.7; Low: HIA value < 0.7) | 0.83 | –
10 | O=C(O)c1ccccc1O [Salicylic acid] | High (key: High: HIA value ≥0.7; Low: HIA value < 0.7) | – | –
11 | O=C1Nc2ccc(Cl)cc2C(c2ccccc2)=N[C@@H]1O [Oxazepam(R)] | High (key: High: HIA value ≥0.7; Low: HIA value < 0.7) | – | –
12 | C=CCc1ccccc1OC[C@H](O)CNC(C)C [Alprenolol(R)] | High (key: High: HIA value ≥0.7; Low: HIA value < 0.7) | 0.93 | –
13 | C[C@@H](O)Cn1cnc2c1c(=O)n(C)c(=O)n2C [Proxyphylline(R)] | High (key: High: HIA value ≥0.7; Low: HIA value < 0.7) | 1 | –
14 | O=C(O)CN(CCN(CC(=O)O)CC(=O)O)CC(=O)O [Edetic_acid] | Low (key: High: HIA value ≥0.7; Low: HIA value < 0.7) | 0.05 | –
15 | CN1C(=O)CN=C(c2ccccc2)c2cc(Cl)ccc21 [Diazepam] | High (key: High: HIA value ≥0.7; Low: HIA value < 0.7) | – | –
16 | Cc1nnc2n1-c1ccc(Cl)cc1C(c1ccccc1Cl)=NC2 [Triazolam] | High (key: High: HIA value ≥0.7; Low: HIA value < 0.7) | – | –
17 | O=C(O)Cc1ccccc1Nc1c(Cl)cccc1Cl [Diclofenac] | High (key: High: HIA value ≥0.7; Low: HIA value < 0.7) | – | –
18 | CC(C)NC[C@H](O)COc1ccc(COCCOC(C)C)cc1 [Bisoprolol(S)] | High (key: High: HIA value ≥0.7; Low: HIA value < 0.7) | – | –
19 | CCN(CC)CCNC(=O)c1cc(Cl)c(N)cc1OC [Metoclopramide] | High (key: High: HIA value ≥0.7; Low: HIA value < 0.7) | – | –
20 | O=C1Nc2ccc(Cl)cc2C(c2ccccc2)=N[C@H]1O [Oxazepam(S)] | High (key: High: HIA value ≥0.7; Low: HIA value < 0.7) | – | –
21 | C[C@]12C=CC(=O)C=C1CC[C@@H]1[C@@H]2[C@@H](O)C[C@@]2(C)[C@H]1CC[C@]2(O)C(=O)CO [Prednisolone] | High (key: High: HIA value ≥0.7; Low: HIA value < 0.7) | – | –
22 | Cc1cnc(C(=O)NCCc2ccc(S(=O)(=O)NC(=O)NC3CCCCC3)cc2)cn1 [Glipizide] | High (key: High: HIA value ≥0.7; Low: HIA value < 0.7) | – | –
23 | O=C1CN=C(c2ccccc2)c2cc(Cl)ccc2N1 [Nordazepam] | High (key: High: HIA value ≥0.7; Low: HIA value < 0.7) | – | –
24 | CCCc1cc(=O)[nH]c(=S)[nH]1 [Propylthiouracil] | High (key: High: HIA value ≥0.7; Low: HIA value < 0.7) | – | –
25 | C#CC1(O)CC[C@H]2[C@@H]3CCC4=CC(=O)CC[C@@H]4[C@H]3CC[C@@]21CC (some centres unmarked) [Norgestrel] | High (key: High: HIA value ≥0.7; Low: HIA value < 0.7) | – | –
26 | ClC(Cl)Cl [Chloroform] | High (key: High: HIA value ≥0.7; Low: HIA value < 0.7) | – | –
27 | CN1C(=O)[C@@H](O)N=C(c2ccccc2)c2cc(Cl)ccc21 [Temazepam(R)] | High (key: High: HIA value ≥0.7; Low: HIA value < 0.7) | – | –

Row | Compound | Class(High: HIA value ≥0.7; Low: HIA value < 0.7) [1] | HIA(Human Intestinal Absorption) ([2]; in vivo) | HIA(Human Intestinal Absorption) ([2]; human, PreHIA data set, value given as fraction)
28 | Cc1cc(NS(=O)(=O)c2ccc(N)cc2)no1 [Sulfamethoxazole] | High (key: High: HIA value ≥0.7; Low: HIA value < 0.7) | – | –
29 | CC(C)NC[C@@H](O)COc1ccc(COCCOC(C)C)cc1 [Bisoprolol(R)] | High (key: High: HIA value ≥0.7; Low: HIA value < 0.7) | – | –
30 | CCOc1ccc2c3c1O[C@H]1[C@@H](O)C=C[C@H]4[C@@H](C2)N(C)CC[C@@]341 [Ethylmorphine] | High (key: High: HIA value ≥0.7; Low: HIA value < 0.7) | – | –
31 | CN1CC[C@]23c4c5ccc(O)c4O[C@H]2[C@@H](O)C=C[C@H]3[C@H]1C5 [Morphine] | High (key: High: HIA value ≥0.7; Low: HIA value < 0.7) | – | –
32 | NS(=O)(=O)c1cc2c(cc1Cl)NCNS2(=O)=O [Hydrochlorothiazide] | Low (key: High: HIA value ≥0.7; Low: HIA value < 0.7) | – | –
33 | CN1C(=O)[C@H](O)N=C(c2ccccc2)c2cc(Cl)ccc21 [Temazepam(S)] | High (key: High: HIA value ≥0.7; Low: HIA value < 0.7) | – | –
34 | C#C[C@]1(O)CC[C@H]2[C@@H]3CCC4=CC(=O)CC[C@@H]4[C@H]3CC[C@@]21CC [Levonorgestrel] | High (key: High: HIA value ≥0.7; Low: HIA value < 0.7) | – | –
35 | CCN(CC)CCOC(=O)C(Cc1cccc2ccccc12)CC1CCCO1 (centres unmarked) [Nafronyl] | High (key: High: HIA value ≥0.7; Low: HIA value < 0.7) | – | –
36 | Nc1cc(N2CCCCC2)nc(N)[n+]1[O-] [Minoxidil] | High (key: High: HIA value ≥0.7; Low: HIA value < 0.7) | – | –
37 | Nc1nnc(-c2cccc(Cl)c2Cl)c(N)n1 [Lamotrigine] | – | 0.98 | –
38 | [H]/N=C(\N/C(=N/[H])Nc1ccc(Cl)cc1)NC(C)C [Chlorguanide] | – | 0.85 | –
39 | CO/N=C(\C(=O)N[C@@H]1C(=O)N2C(C(=O)O)=C(CSc3nc(=O)c(=O)[nH]n3C)CS[C@H]12)c1csc(N)n1 [Ceftriaxone] | – | 1 | –
40 | CN(C)[C@@H]1C(O)=C(C(N)=O)C(=O)[C@@]2(O)C(O)=C3C(=O)c4c(O)cccc4[C@@](C)(O)[C@H]3[C@H](O)[C@@H]12 [Oxytetracycline] | – | 0.58 | –
41 | CC#C[C@]1(O)CC[C@H]2[C@@H]3CCC4=CC(=O)CCC4=C3[C@@H](c3ccc(N(C)C)cc3)C[C@@]21C [Mifepristone] | – | – | 0.9
42 | O=C(O)c1cc(-c2ccc(F)cc2F)ccc1O [Diflunisal] | – | 0.9 | –
43 | Cc1ccc(S(=O)(=O)NC(=O)N[C@H]2[C@H]3CC[C@@](C)([C@H]2O)C3(C)C)cc1 [Glibornuride] | – | 0.98 | –
44 | O=C1CN(/N=C/c2ccc([N+](=O)[O-])o2)C(=O)N1 [Nitrofurantoin] | – | 0.95 | –
45 | NC[C@H]1O[C@H](O[C@H]2[C@H](O)[C@@H](O[C@H]3O[C@H](CO)[C@@H](O)[C@H](N)[C@H]3O)[C@H](N)C[C@@H]2N)[C@H](N)C[C@@H]1O [Tobramycin] | – | 0.01 | –
46 | O=C(O)P(=O)(O)O [Foscarnet] | – | 0.17 | –
47 | Cc1cc(NS(=O)(=O)c2ccc(N)cc2)nc(C)n1 [Sulfisomidine] | – | 0.9 | –
48 | Cc1cccc(Nc2ccccc2C(=O)O)c1C [Mefenamic_acid] | – | 0.9 | –
49 | CC(C)C(=O)Nc1ccc([N+](=O)[O-])c(C(F)(F)F)c1 [Flutamide] | – | 0.9 | –
50 | Cc1[nH]c(=O)c(C#N)cc1-c1ccncc1 [Milrinone] | – | 0.83 | –
51 | NC(N)=Nc1nc(CSCCC(N)=NS(N)(=O)=O)cs1 [Famotidine] | – | 0.28 | –
52 | CC1(C)O[C@@H]2C[C@H]3[C@@H]4C[C@H](F)C5=CC(=O)C=C[C@]5(C)[C@H]4[C@@H](O)C[C@]3(C)[C@]2(C(=O)CO)O1 [Flunisolide] | – | 0.8 | –
53 | CCOC(=O)[C@H](CCc1ccccc1)N[C@@H](C)C(=O)N1CCC[C@H]1C(=O)O [Enalapril] | – | 0.66 | –
